Read-outs that look alike come from different tables or passages of the source. No end group written: not given here.
Key:
HLA-A*24:02 molecule = HLA-A*24:02 molecule (Homo sapiens, UniProt P04439, D101N/D140Y/D185E/E176V/E190D/F33S/G103R/G107R/I119L/I121M/I306V/K335N/L105A/L180Q/L300P/N151K/N90K/Q86E/Q94H/R106L/R138H/R89G/T104I/T345S/V100E/W191G/Y123F); assay: Binding of peptide to HLA-A*24:02 molecule using C1R-A24 cells
Experimental: Measurement of binding ability of a peptide to an HLA-A*24:02 molecule, which is a product of an HLA-A*24:02 gene, was performed using C1R-A24 cells expressing an HLA-A*24:02 molecule (Cells created by Professor Masafumi Takiguchi, Kumamoto University, was provided by Assistant Professor Masaki Yasukawa, Ehime University, with permission).
First, the C1R-A24 cells were exposed to acidic conditions at pH 3.3 for 30 seconds to dissociate and remove an endogenous peptide originally binding to an HLA-A*24:02 molecule and light chain β2m commonly associated with an HLA class I molecule. After neutralization, purified β2m was added to the C1R-A24 cells, and the mixture was added to a peptide dilution series and incubated on ice for four hours.
Thereafter, the number of MHC-peps for each C1R-A24 cell (proportional to a fluorescence intensity of the fluorescent antibody) was quantitatively measured using a fluorescence cell analyzer FACScan (Becton-Dickinson).

HLA-A*02:06 molecule = target: T1, HLA-A*02:06 molecule (Homo sapiens, UniProt P04439, D140Y/D185E/D98H/E176V/E277Q/F33Y/G131W/G231S/I119V/I121R/I166T/I218V/L300P/L318F/N151K/N90K/P208A/P217A/Q86G/Q94H/R138H/R169H/T345S); assay: Binding of peptide to HLA-A*02:06 molecule using RA2.6 cells
T1 construct: expressed in transfected cells; host or cells: RA2.6 cells (mouse TAP-deficient RMAS with HLA-A*02:06 cDNA)
Experimental: Measurement of binding ability of a peptide to an HLA-A*02:06 molecule, which is a product of an HLA-A*02:06 gene, was performed using RA2.6 cells (a cell line newly created at Kochi University) obtained by introducing cDNA of the HLA-A*02:06 gene into RMAS, which is a mouse transporter associated with antigen processing (TAP)-deficient cell line.
A fluorescently labeled monoclonal antibody BB7.2 that specifically recognizes a peptide binding type HLA-A*02:06 molecule was added thereto, and the mixture was incubated on ice for 20 minutes to stain the cells.

HLA-A*02:01 molecule = target: T2, HLA-A*02:01 molecule (Homo sapiens, UniProt P04439, D140Y/D185E/D98H/E176V/E277Q/G131W/G231S/I119V/I121R/I166T/I218V/L300P/L318F/N151K/N90K/P208A/P217A/Q86G/Q94H/R138H/R169H/T345S); assay: Binding of peptide to HLA-A*02:01 molecule using cell line T2
T2 construct: using a cell line T2 (purchased from ATCC) expressing an HLA-A*02:01 molecule; host or cells: T2 cell line
Experimental: Measurement of binding ability of a peptide to an HLA-A*02:01 molecule, which is a product of an HLA-A*02:01 gene, was performed using a cell line T2 (purchased from ATCC) expressing an HLA-A*02:01 molecule.
T2 cells and purified β2m were added to a serial dilution series of a peptide whose binding ability was to be measured, and then the mixture was incubated at 37° C. for four hours. HLA-A*02:01 molecules whose expression level increased in a peptide concentration-dependent manner by this time point were stained using an association-type specific fluorescently labeled monoclonal antibody BB7.2.
Thereafter, the amount of fluorescence per cell was measured with a flow cytometer, and a dissociation constant Kd value was calculated by the method disclosed in the article (Udaka et al., Immunogenetics, 51, 816-828, 2000) by the present inventor.

[1] = Table 2, dissociation constant Kd value (−log Kd value), >−3.0 = no significant binding ability, read-out: Measured value of allele A*24:02 (converted)
[2] = Table 4, Kd value (−log Kd value), smaller than −3 = binding property, read-out: Measured value of allele A*24:02 (converted)
[3] = Table 2, dissociation constant Kd value (−log Kd value), >−3.0 = no significant binding ability, read-out: Measured value of allele A*02:06 (converted)
[4] = Table 2, dissociation constant Kd value (−log Kd value), >−3.0 = no significant binding ability, read-out: Measured value of allele A*02:01 (converted)
[5] = Table 4, Kd value (−log Kd value), smaller than −3 = binding property, read-out: Measured value of allele A*02:01 (converted)

Sequence	Kd (HLA-A*24:02 molecule; [1])	Kd (HLA-A*24:02 molecule; [2])	Kd (HLA-A*02:06 molecule; [3])	Kd (HLA-A*02:01 molecule; [4])	other results
THLDAGTVE [compound 75]	> 1000 µM	> 1000 µM	> 1000 µM	> 1000 µM	–
TLTAWQHGL [compound 33]	–	–	–	–	Kd (HLA-A*24:02 molecule): 20.1 µM; Kd (HLA-A*02:06 molecule): 1.42 µM; Kd (HLA-A*02:01 molecule): 1.11 µM
VMSHHGEKL [compound 19]	0.793 µM	–	50.4 µM	8.32 µM	–
YFFTVIFSF [compound 44]	0.168 µM	–	> 39.8 µM	> 1000 µM	–
YPGWHSTTI [compound 52]	2.18 µM	–	> 1000 µM	–	Kd (HLA-A*02:01 molecule): > 1000 µM
YQLSPPITW [compound 32]	–	–	–	–	Kd (HLA-A*24:02 molecule; Measured value of allele A*24:02, Table 2, dissociation constant Kd value (−log Kd value), >−3.0 = no significant binding ability): 1.72 µM; Kd (HLA-A*24:02 molecule; Measured value of allele A*24:02, Table 4, Kd value (−log Kd value), smaller than −3 = binding property): 0.172 µM; Kd (HLA-A*02:06 molecule): 1.78 µM; Kd (HLA-A*02:01 molecule): 351 µM
YTYDPPTTI [compound 3]	3.11 µM	–	–	0.336 µM	Kd (HLA-A*02:06 molecule; Table 4, Kd value (−log Kd value), smaller than −3 = binding property, read-out: Measured value of allele A*02:06 (converted)): 0.669 µM; Kd (HLA-A*02:01 molecule; [5]): 3.36 µM

More lines, main results first:

Kd (HLA-A*24:02 molecule; [1])	Kd (HLA-A*24:02 molecule; [2])	Kd (HLA-A*02:06 molecule; [3])	Kd (HLA-A*02:01 molecule; [4])	Sequence	other results
> 1000 µM	> 1000 µM	> 1000 µM	> 1000 µM	STGESAQTS [compound 71]	–
5.36 µM	5.36 µM	> 1000 µM	> 1000 µM	TVLVPPRNL [compound 48]	Measured value of allele A*02:06 (HLA-A*02:06 molecule; Table 4, Kd value (−log Kd value), smaller than −3 = binding property): >−3; Kd (HLA-A*02:01 molecule; [5]): > 1000 µM
3.87 µM	–	> 1000 µM	> 1000 µM	VFGRVMQID [compound 66]	–
2.81 µM	–	3.4 µM	19.3 µM	VLLQQFQTA [compound 15]	–
> 1000 µM	> 1000 µM	> 1000 µM	7.73 µM	VLPPARHST [compound 54]	–
> 1000 µM	> 1000 µM	389 µM	> 1000 µM	VMQIDGVQP [compound 67]	–
0.692 µM	–	1.36 µM	0.583 µM	YLYDPPTTI [compound 4]	–
0.584 µM	–	2.8 µM	0.696 µM	YVYDPPTTI [compound 2]	–

— patent US20250236642A1, “PHARMACEUTICAL COMPOSITION FOR TREATMENT OR PREVENTION OF ADULT T-CELL LEUKEMIA” (NEC Corporation, priority 2022, published 2025)
